Experimental findings from patent publication US10131644B2, “Aryl sultam derivatives as RORc modulators” (Genentech, Inc., priority 2014, dated 2018) are described below.

Structures are written as SMILES.

This experiment has as its target T1, RORc (Homo sapiens, UniProt P51449).
T1 sequence (P51449 269-508 limits assumed): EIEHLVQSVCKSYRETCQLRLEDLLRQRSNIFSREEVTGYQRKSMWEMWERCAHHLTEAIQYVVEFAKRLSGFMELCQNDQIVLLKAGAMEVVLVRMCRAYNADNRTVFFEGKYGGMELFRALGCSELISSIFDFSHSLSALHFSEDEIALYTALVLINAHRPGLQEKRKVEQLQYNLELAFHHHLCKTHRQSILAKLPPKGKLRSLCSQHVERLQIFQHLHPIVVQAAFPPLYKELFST
The experiment can be described thus: In vitro RORc ligand binding assay (25-[3H]hydroxycholesterol displacement). The settings on record: IC50, IC50 values for RORc; unit inferred.
Description: This assay was used to determine a compound's potency in inhibiting activity of RORc by determining, Kiapp, IC50, or percent inhibition values.
On day of the assay, 100 uL of 0.05% CHAPS (in deionized H2O) was added to all wells of the GFB Unifilter plate and allowed soak for 1 h. A wash buffer of 50 mM HEPES (pH 7.4), 150 mM NaCl, and 5 mM MgCl2 was prepared to wash the filter plate. To prepare an assay buffer, BSA was added to the wash buffer to reach 0.01% and DTT was added to reach 1 mM.
The 20× compound stocks were diluted in DMSO with Assay Buffer 4-fold to reach 5× the final test concentration in 25% DMSO (10 uL compound+30 uL Assay Buffer). Solutions were mixed by aspiration several times with a pipette set on 50 uL volume. For the assay, 10 uL of 5× compound stock solutions in 25% DMSO were added to the assay plate in duplicate.
For two point screening, 10 mM stock compound solutions were diluted in DMSO to obtain 200 uM (20× the high test concentration) and then diluted 10-fold further to reach 20 uM (20× the low test concentration). The 20× stocks were diluted 4-fold with Assay Buffer (10 uL compound+30 uL Assay Buffer) to reach 5× the test concentrations (50 uM and 5 uM) and 10 uL were added to two assay plates for the duplicate wells. With each concentration tested on 2 plates, each set of 80 compounds used 4 assay plates (1 uM and 10 uM, with n=2).
For 25-hydroxycholesterol in 25% DMSO/75% Assay Buffer; 10 uL per well was used for NSB samples. Wells for Total Binding and No Receptor sample determination contained 10 uL of 25% DMSO/75% Assay Buffer per well.
Add 20 uL to all wells to reach 6 nM final in the assay.
Stock receptor solution was diluted in assay buffer to obtain 1.5 ug/mL in Assay Buffer. 20 uL was added to all wells. For No R samples, 20 uL Assay Buffer was substituted for receptor solution.
Assay plates were 96-well polypropylene V-bottom plates. 10 uL of 5× compound in 25% DMSO/75% Assay Buffer was added to Test wells. 10 uL of 25% DMSO/75% Assay Buffer was added to Total Binding or No Receptor wells. 10 uL of 5 uM 25-hydroxycholesterol in 25% DMSO/75% Assay Buffer was added to NSB wells. […] 20 uL of 1.5 ug/mL RORc receptor was added to wells (or 40 uL Assay Buffer to No R wells). Following addition to the wells, the plates were incubated 3 h at 25° C.
Using a Packard Filtermate Harvester, the filter plate were washed 4 times following transfer of the incubated samples. Plates were dry-filtered completely (2 h at 50° C. or overnight at room temperature). 50 uL Microscint 0 was added to all wells and read on Topcount protocol Inverted.
For NSB wells, 1 uM 25-hydroxycholesterol was also present.
A word on the IC50: it is the concentration that gives 50% inhibition. Low readings indicate greater potency in that assay, high ones weaker potency in that assay. Turning to `C[C@H]1CC[C@H](c2ccccc2)S(=O)(=O)N1Cc1cc(F)c(C2(N)COC2)cc1F` [Compound 190, 3-[2,5-difluoro-4-[[(3S,6R)-3-methyl-1,1-dioxo-6-phenyl-thiazinan-2-yl]methyl]phenyl]oxetan-3-amine], the IC50 is 71.5 nM.

The molecule `C[C@H]1CC[C@H](c2ccccc2)S(=O)(=O)N1Cc1ccc(C2(CCC(N)=O)CCOCC2)cc1F` [Compound 87, 3-[4-[3-fluoro-4-[[(3S,6R)-3-methyl-1,1-dioxo-6-phenyl-thiazinan-2-yl]methyl]phenyl]tetrahydropyran-4-yl]propanamide] had an IC50 of 8.8 nM.

Consider `C[C@@H](NC1(c2ccc(CN3[C@@H](C)CC[C@H](c4ccccc4)S3(=O)=O)c(F)c2)CCOCC1)C(N)=O` [Compound 180, (2R)-2-[[4-[3-fluoro-4-[[(3S,6R)-3-methyl-1,1-dioxo-6-phenyl-thiazinan-2-yl]methyl]phenyl]tetrahydropyran-4-yl]amino]propanamide], for which the IC50 was determined as 6.7 nM.

For `COC(=O)[C@]1(c2ccc(CN3[C@@H](C)CC[C@H](c4ccccc4)S3(=O)=O)cc2)CC[C@H](n2cnnc2)CC1` [Example 17, 1-[4-((3S,6R)-3-Methyl-1,1-dioxo-6-phenyl-[1,2]thiazinan-2-ylmethyl)-phenyl]-4-[1,2,4]triazol-4-yl-cyclohexanecarboxylic acid methyl ester], the IC50 turned out to be 360 nM.

In turn, `C[C@H]1CC[C@H](c2ccccc2)S(=O)(=O)N1Cc1ccc(C2(NC[C@H](O)CO)CCOCC2)cc1F` [Compound 107, (2S)-3-[[4-[3-fluoro-4-[[(3S,6R)-3-methyl-1,1-dioxo-6-phenyl-thiazinan-2-yl]methyl]phenyl]tetrahydropyran-4-yl]amino]propane-1,2-diol] showed an IC50 of 22.6 nM.

In turn, `C[C@H]1CC[C@H](c2ccccc2)S(=O)(=O)N1Cc1cc(F)c(C2(C(N)=O)CC(F)(F)C2)cc1F` [Compound 194, 1-[2,5-difluoro-4-[[(3S,6R)-3-methyl-1,1-dioxo-6-phenyl-thiazinan-2-yl]methyl]phenyl]-3,3-difluoro-cyclobutanecarboxamide] yielded an IC50 of 3.05 nM.

Take `C[C@H]1CC[C@H](c2ccccc2)S(=O)(=O)N1Cc1ccc([C@]2(CO)CC[C@@H](n3cnnc3)CC2)cc1F` [Compound 26, {1-[3-Fluoro-4-((3S,6R)-3-methyl-1,1-dioxo-6-phenyl-[1,2]thiazinan-2-ylmethyl)-phenyl]-4-[1,2,4]triazol-4-yl-cyclohexyl}-methanol]: the IC50 turned out to be 32 nM.

Molecule `C[C@H]1CC[C@H](c2ccccc2)S(=O)(=O)N1Cc1cc(F)c(C2(CO)CCC(n3cnnc3)CC2)cc1F` (stereo partly drawn) [Compound 134, [1-[2,5-difluoro-4-[[(3S,6R)-3-methyl-1,1-dioxo-6-phenyl-thiazinan-2-yl]methyl]phenyl]-4-(1,2,4-triazol-4-yl)cyclohexyl]methanol] yielded an IC50 of 87.9 nM.

Regarding `CC(=O)N1CCC(OCC(O)CO)(c2cc(F)c(CN3[C@@H](C)CC[C@H](c4ccccc4)S3(=O)=O)cc2F)CC1` (stereo partly drawn) [Compound 144, 1-[4-[2,5-difluoro-4-[[(3S,6R)-3-methyl-1,1-dioxo-6-phenyl-thiazinan-2-yl]methyl]phenyl]-4-(2,3-dihydroxypropoxy)-1-piperidyl]ethanone], the IC50 was determined as 21.6 nM.

For `CNC(=O)CCC1(c2ccc(CN3[C@@H](C)CC[C@H](c4ccccc4)S3(=O)=O)c(F)c2)CCOCC1` [Compound 88, 3-[4-[3-fluoro-4-[[(3S,6R)-3-methyl-1,1-dioxo-6-phenyl-thiazinan-2-yl]methyl]phenyl]tetrahydropyran-4-yl]-N-methyl-propanamide], the IC50 came out at 14.8 nM.

With `CCNC(=O)C1(c2ccc(CN3[C@@H](C)CC[C@H](c4ccccc4)S3(=O)=O)c(F)c2)CCOCC1` [Compound 51, N-ethyl-4-[3-fluoro-4-[[(3S,6R)-3-methyl-1,1-dioxo-6-phenyl-thiazinan-2-yl]methyl]phenyl]tetrahydropyran-4-carboxamide], the IC50 turned out to be 147 nM.

Consider `C[C@H]1CC[C@H](c2ccccc2)S(=O)(=O)N1Cc1ccc(C2(CCC#N)COC2)cc1F` [Compound 159], for which the IC50 turned out to be 77.1 nM.

`CC(=O)N1CCC(OCC(O)CO)(c2cc(F)c(CN3[C@@H](C)CC[C@H](c4ccccc4)S3(=O)=O)cc2F)CC1` (stereo in doubt) [Compound 168, 1-[4-[2,5-difluoro-4-[[(3S,6R)-3-methyl-1,1-dioxo-6-phenyl-thiazinan-2-yl]methyl]phenyl]-4-[(2S)-2,3-dihydroxypropoxy]-1-piperidyl]ethanone] registered an IC50 of 35.5 nM.

For `C[C@H]1CC[C@H](c2ccccc2)S(=O)(=O)N1Cc1ccc(C2(C(=O)O)CCOCC2)cc1F` [Compound 44, 4-[3-Fluoro-4-((3S,6R)-3-methyl-1,1-dioxo-6-phenyl-[1,2]thiazinan-2-ylmethyl)-phenyl]-tetrahydro-pyran-4-carboxylic acid], the IC50 is 1100 nM.

`C[C@H]1CC[C@H](c2ccccc2)S(=O)(=O)N1Cc1cc(F)c(C2(OCC(=O)NCCO)CCOCC2)cc1F` [Compound 156, 2-[4-[2,5-difluoro-4-[[(3S,6R)-3-methyl-1,1-dioxo-6-phenyl-thiazinan-2-yl]methyl]phenyl]tetrahydropyran-4-yl]oxy-N-(2-hydroxyethyl)acetamide] displayed an IC50 of 15.2 nM.

In turn, `C[C@H]1CC[C@H](c2ccccc2)S(=O)(=O)N1Cc1ccc(C2(C(=O)NCCN)CCOCC2)cc1F` [Compound 52, N-(2-aminoethyl)-4-[3-fluoro-4-[[(3S,6R)-3-methyl-1,1-dioxo-6-phenyl-thiazinan-2-yl]methyl]phenyl]tetrahydropyran-4-carboxamide] showed an IC50 of 480 nM.

As to `C[C@H]1CC[C@H](c2ccccc2)S(=O)(=O)N1Cc1ccc(C2(OCC(N)=O)COC2)cc1F` [Compound 186, 2-[3-[3-fluoro-4-[[(3S,6R)-3-methyl-1,1-dioxo-6-phenyl-thiazinan-2-yl]methyl]phenyl]oxetan-3-yl]oxyacetamide], the IC50 was determined as 8 nM.

`C[C@H]1CC[C@H](c2ccccc2)S(=O)(=O)N1Cc1cc(F)c(C2(CO)CCC(O)CC2)cc1F` (stereo partly drawn) [Compound 129, 4-[2,5-difluoro-4-[[(3S,6R)-3-methyl-1,1-dioxo-6-phenyl-thiazinan-2-yl]methyl]phenyl]-4-(hydroxymethyl)cyclohexanol] yielded an IC50 of 8.1 nM.

`CCOC(=O)C[C@@H](O)C1(c2ccc(CN3[C@@H](C)CC[C@H](c4ccccc4)S3(=O)=O)c(F)c2)CCOCC1` [Compound 116, ethyl (3R)-3-[4-[3-fluoro-4-[[(3S,6R)-3-methyl-1,1-dioxo-6-phenyl-thiazinan-2-yl]methyl]phenyl]tetrahydropyran-4-yl]-3-hydroxy-propanoate]: the IC50 came to 12.2 nM.

In the case of `CC(=O)N1CC(OCC(=O)O)(c2cc(F)c(CN3[C@@H](C)CC[C@H](c4ccccc4)S3(=O)=O)cc2F)C1` [Compound 136, 2-[1-acetyl-3-[2,5-difluoro-4-[[(3S,6R)-3-methyl-1,1-dioxo-6-phenyl-thiazinan-2-yl]methyl]phenyl]azetidin-3-yl]oxyacetic acid], the IC50 came out at 17.2 nM.

In the case of `C[C@H]1CC[C@H](c2ccccc2)S(=O)(=O)N1Cc1ccc(C2(CO)CC2)cc1F` [Compound 112, [1-[3-fluoro-4-[[(3S,6R)-3-methyl-1,1-dioxo-6-phenyl-thiazinan-2-yl]methyl]phenyl]cyclopropyl]methanol], the IC50 was 206 nM.

`C[C@H]1CC[C@H](c2ccccc2)S(=O)(=O)N1Cc1ccc(C2(CCO)COC2)cc1F` [Compound 158]: the IC50 was 60.3 nM.

In turn, `C[C@H]1CC[C@H](c2ccccc2)S(=O)(=O)N1Cc1ccc(C2(CC#N)COC2)cc1F` [Compound 105, 2-[3-[3-fluoro-4-[[(3S,6R)-3-methyl-1,1-dioxo-6-phenyl-thiazinan-2-yl]methyl]phenyl]oxetan-3-yl]acetonitrile] gave an IC50 of 74.9 nM.

For the molecule `C[C@H]1CC[C@H](c2ccccc2)S(=O)(=O)N1Cc1ccc([C@]2(CO)CC[C@H](n3cnnc3)CC2)cc1` [Example 14, {1-[4-((3S,6R)-3-Methyl-1,1-dioxo-6-phenyl-[1,2]thiazinan-2-ylmethyl)-phenyl]-4-[1,2,4]triazol-4-yl-cyclohexyl}-methanol], the IC50 is 1800 nM.

Regarding `CC(=O)N1CCC(O)(c2ccc(CN3[C@@H](C)CCC(c4ccccc4)S3(=O)=O)cc2)CC1` (stereo partly drawn) [Compound 49, 1-{4-Hydroxy-4-[4-((S)-3-methyl-1,1-dioxo-6-phenyl-[1,2]thiazinan-2-ylmethyl)-phenyl]-piperidin-1-yl}-ethanone], the IC50 turned out to be 120 nM.

The molecule `C[C@H]1CC[C@H](c2ccccc2)S(=O)(=O)N1Cc1ccc(C2(CC(N)=O)CCOCC2)cc1F` [Compound 89, 2-[4-[3-fluoro-4-[[(3S,6R)-3-methyl-1,1-dioxo-6-phenyl-thiazinan-2-yl]methyl]phenyl]tetrahydropyran-4-yl]acetamide] showed an IC50 of 376 nM.

As to `C[C@H]1CC[C@H](c2ccccc2)S(=O)(=O)N1Cc1ccc(C2(C(=O)NCC(=O)O)CCOCC2)cc1F` [Compound 58, 2-[[4-[3-fluoro-4-[[(3S,6R)-3-methyl-1,1-dioxo-6-phenyl-thiazinan-2-yl]methyl]phenyl]tetrahydropyran-4-carbonyl]amino]acetic acid], the IC50 was found to be 228 nM.

As for `CCOC(=O)CNC1(c2ccc(CN3[C@@H](C)CC[C@H](c4ccccc4)S3(=O)=O)c(F)c2)CCOCC1` [Compound 161, ethyl 2-[[4-[3-fluoro-4-[[(3S,6R)-3-methyl-1,1-dioxo-6-phenyl-thiazinan-2-yl]methyl]phenyl]tetrahydropyran-4-yl]amino]acetate], the IC50 was 29.5 nM.

As for `C[C@H]1CC[C@H](c2ccccc2)S(=O)(=O)N1Cc1cc(F)c(C2(C(N)=O)CC(=O)C2)cc1F` [Compound 193, 1-[2,5-difluoro-4-[[(3S,6R)-3-methyl-1,1-dioxo-6-phenyl-thiazinan-2-yl]methyl]phenyl]-3-oxo-cyclobutanecarboxamide], the IC50 stood at 8.07 nM.
